Usually GI50 stands for the concentration that inhibits growth by half. Low readings indicate more potent growth inhibition, high ones less potent growth inhibition. The IC50 is the concentration needed to halve the response being measured.

A value given as a limit tells only on which side of the number the result lay.

In assay [1] the test system is MV-4-11. Briefly: Cell viability assay (resazurin, leukemia cell lines), 72 h growth inhibition. It is filed as cell-based. Conditions: Homo sapiens, MV4-11, MV-4-11 cells. An excerpt: Compounds from Example 1 may be subjected to a standard MTT (3-(4,5-dimethylthiazol-2-yl)-2,5-diphenyltetrazolium bromide) and resazurin assays on solid tumour cell lines and leukemia cell lines, respectively, as previously reported (Wang S et al., J Med Chem 47:1662-1675, 2004 and Diab S e al. CheMedChem 9:962-972, 2014). Compound concentrations required to inhibit 50% of cell growth (GI50) can be calculated using non-linear regression analysis.
(Resazurin is reduced to fluorescent resorufin, in cell work by metabolically active cells.)

For assay [2], the target named is T1, CDK8/CycC (Homo sapiens, UniProt P49336).
T1 construct: purchased ProQinase GmbH, Freiburg, Germany
The experiment in a line: Radiometric protein kinase assay (33PanQinase Activity Assay, ProQinase). Format: biochemical. Particulars: 1.0 μM ATP, 1.0 μg/50 μL substrate RBER-IRStide, duplicate measurements, read-out: CDK8 Kinase inhibition IC50. The method, then:
The kinase activity of CDK8/CycC was measured using a radiometric protein kinase assay (33PanQinase® Activity Assay) by ProQinase GmbH, Freiburg, Germany, with the protocols shown at www.proqinase.com/sites/default/files/public/uploads/WildtypeProfiler/radiometric_assay_v05_2012_manual.pdf. IC50 determination (8.3 nM with 1.0 μM ATP and 1.0 μg/50 μL of substrate RBER-IRStide) was performed as duplicate measurements and calculated using Quattro Workflow V3.1.1 (Quattro Research GmbH, Germany). Apparent inhibition constants (Ki) values were calculated from Km (ATP) and IC50 values for the respective kinases.

T1 sequence (P49336 whole entry): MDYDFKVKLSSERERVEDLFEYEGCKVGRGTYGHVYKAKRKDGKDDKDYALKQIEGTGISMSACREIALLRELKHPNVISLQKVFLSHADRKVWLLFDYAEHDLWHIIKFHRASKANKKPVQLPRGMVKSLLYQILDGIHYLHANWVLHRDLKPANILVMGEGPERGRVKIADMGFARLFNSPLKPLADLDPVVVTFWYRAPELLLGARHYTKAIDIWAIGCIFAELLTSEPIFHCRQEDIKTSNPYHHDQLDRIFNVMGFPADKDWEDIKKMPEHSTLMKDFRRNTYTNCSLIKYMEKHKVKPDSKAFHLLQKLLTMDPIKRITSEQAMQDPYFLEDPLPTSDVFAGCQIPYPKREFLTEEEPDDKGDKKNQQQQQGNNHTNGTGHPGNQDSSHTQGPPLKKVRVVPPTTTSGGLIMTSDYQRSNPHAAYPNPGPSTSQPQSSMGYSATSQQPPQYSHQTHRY
T1 sequence (P24863 whole entry partner): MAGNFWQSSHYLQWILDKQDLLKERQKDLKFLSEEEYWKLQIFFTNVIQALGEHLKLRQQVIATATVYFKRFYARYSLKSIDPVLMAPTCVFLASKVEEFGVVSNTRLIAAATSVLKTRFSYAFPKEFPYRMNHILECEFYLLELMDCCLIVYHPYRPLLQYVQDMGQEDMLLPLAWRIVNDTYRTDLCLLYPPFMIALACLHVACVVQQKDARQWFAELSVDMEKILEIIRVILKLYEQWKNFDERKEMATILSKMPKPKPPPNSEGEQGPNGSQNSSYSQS

For `CCN1CCN(Cc2ccc(NC(=O)Nc3nc(C)c(-c4nc(NC)ncc4C#N)s3)cc2C(F)(F)F)CC1` [Compound 72, 1-(5-(5-Cyano-2-(methylamino)pyrimidin-4-yl)-4-methylthiazol-2-yl)-3-(4-((4-ethylpiperazin-1-yl)methyl)-3-(trifluoromethyl)phenyl)urea], it took 432 ± 10 nM to inhibit growth in assay [1] by half (GI50). Besides, the IC50 in assay [2] worked out at 64 nM.

With `CNc1nccc(-c2sc(NC(=O)Nc3ccc(F)cc3C(F)(F)F)nc2C)n1` [Compound 7, 1-(4-fluoro-2-(trifluoromethyl)-phenyl)-3-(4-methyl-5-(2-(methylamino)-pyrimidin-4-yl)thiazol-2-yl)urea], the IC50 in assay [2] is 2300 nM. The compound `CCN1CCN(Cc2ccc(NC(=O)Nc3nc(C)c(-c4ccnc(N)n4)s3)cc2C(F)(F)F)CC1` [Compound 62, 1-(5-(2-Aminopyrimidin-4-yl)-4-methylthiazol-2-yl)-3-(4-((4-ethylpiperazin-1-yl)methyl)-3-(trifluoromethyl)phenyl)urea] came in with a concentration for 50% growth inhibition (GI50) in assay [1] of 1 nM. Besides, in assay [2], the half-maximal inhibitory concentration (IC50) is 14 nM. With `CCN1CCN(Cc2ccc(NC(=O)Nc3ncc(-c4ccnc(NC)n4)s3)cc2C(F)(F)F)CC1` [Compound 59, 1-(4-((4-Ethylpiperazin-1-yl)methyl)-3-(trifluoromethyl)phenyl)-3-(5-(2-(methylamino)pyrimidin-4-yl)thiazol-2-yl)urea], halving of growth in assay [1] (GI50) required 1 nM. In addition, the half-maximal inhibitory concentration (IC50) in assay [2] amounted to 12 nM. In assay [1], `CNc1nccc(-c2sc(NC(=O)Nc3ccc(CN4CCC(N)CC4)c(C(F)(F)F)c3)nc2C)n1` [Compound 39, 1-(4-((4-Aminopiperidin-1-yl)methyl)-3-(trifluoromethyl)-phenyl)-3-(4-methyl-5-(2-(methylamino)pyrimidin-4-yl)thiazol-2-yl)urea] had a GI50 of 96 nM. In addition, the IC50 in assay [2] turned out to be 8 nM.

Regarding `Cc1nc(NC(=O)Nc2ccc(CN3CCN(C)CC3)c(C(F)(F)F)c2)sc1-c1ccnc(N(C)C)n1` [Compound 49, 1-(5-(2-(Dimethylamino)pyrimidin-4-yl)-4-methylthiazol-2-yl)-3-(4-((4-methylpiperazin-1-yl)methyl)-3-(trifluoromethyl)phenyl)urea], in assay [1], the GI50 was less than 1 nM. In assay [2], the half-maximal inhibitory concentration (IC50) amounted to 82 nM. The like results for `CNc1ncc(C#N)c(-c2sc(NC(=O)Nc3ccc(CN4CCOCC4)c(C(F)(F)F)c3)nc2C)n1` [Compound 75, 1-(5-(5-Cyano-2-(methylamino)pyrimidin-4-yl)-4-methylthiazol-2-yl)-3-(4-(morpholinomethyl)-3-(trifluoromethyl)phenyl)urea] were, in that order, 3420 ± 230 nM and 82 nM. `CNc1ncc(C#N)c(-c2sc(NC(=O)Nc3ccc(CN4CCN(C)CC4)c(C(F)(F)F)c3)nc2C)n1` [Compound 71, 1-(5-(5-Cyano-2-(methylamino)pyrimidin-4-yl)-4-methylthiazol-2-yl)-3-(4-((4-methylpiperazin-1-yl)methyl)-3-(trifluoromethyl)phenyl)urea] yielded a concentration for 50% growth inhibition (GI50) in assay [1] of 200 ± 20 nM. In addition, the concentration for half-maximal inhibition (IC50) in assay [2] was 50 nM. For `CSc1nccc(-c2sc(NC(=O)Nc3ccc(CN4CCOCC4)c(C(F)(F)F)c3)nc2C)n1` [Compound 83, 1-(4-Methyl-5-(2-(methylthio)pyrimidin-4-yl)thiazol-2-yl)-3-(4-(morpholinomethyl)-3-(trifluoromethyl)phenyl)urea], in that order: 1560 ± 100 nM and 121 nM. As for `CNc1nccc(-c2sc(NC(=O)Nc3ccc(CN4CCN(C(C)=O)CC4)c(C(F)(F)F)c3)nc2C)n1` [Compound 35, 1-(4-((4-Acetylpiperazin-1-yl)methyl)-3-(trifluoromethyl)-phenyl)-3-(4-methyl-5-(2-(methylamino)pyrimidin-4-yl)thiazol-2-yl)urea], in assay [1], the GI50 came out at 85 nM. The IC50 in assay [2] came to 14 nM. In turn, `CCNc1nccc(-c2sc(NC(=O)Nc3ccc(CN4CCN(C(C)C)CC4)c(C(F)(F)F)c3)nc2C)n1` [Compound 54, 1-(5-(2-(ethylamino)pyrimidin-4-yl)-4-methylthiazol-2-yl)-3-(4-((4-isopropylpiperazin-1-yl)methyl)-3-(trifluoromethyl)phenyl)urea] came in with a 50% growth inhibitory concentration (GI50) in assay [1] of less than 1 nM. For the same compound, the concentration for half-maximal inhibition (IC50) in assay [2] turned out to be 16 nM. `CCNc1nccc(-c2sc(NC(=O)Nc3ccc(CN4CCOCC4)c(C(F)(F)F)c3)nc2C)n1` [Compound 56, 1-(5-(2-(Ethylamino)pyrimidin-4-yl)-4-methylthiazol-2-yl)-3-(4-(morpholinomethyl)-3-(trifluoromethyl)phenyl)urea] gave a 50% growth inhibitory concentration (GI50) in assay [1] of 529 ± 120 nM. In addition, the IC50 in assay [2] worked out at 21 nM.

`CNc1nccc(-c2cnc(NC(=O)Nc3ccc(CN4CCN(C)CC4)c(C(F)(F)F)c3)s2)n1` [Compound 58, 1-(5-(2-(Methylamino)pyrimidin-4-yl)thiazol-2-yl)-3-(4-((4-methylpiperazin-1-yl)methyl)-3-(trifluoromethyl)phenyl)urea] yielded a 50% growth inhibitory concentration (GI50) in assay [1] of 1 nM. Further, in assay [2], the IC50 was 7 nM. For `CSc1nccc(-c2sc(NC(=O)Nc3ccc(CN4CCN(C)CC4)c(C(F)(F)F)c3)nc2C)n1` [Compound 80, 1-(4-Methyl-5-(2-(methylthio)pyrimidin-4-yl)thiazol-2-yl)-3-(4-((4-methyl-piperazin-1-yl)methyl)-3-(trifluoromethyl)phenyl)urea], in that order: 1 nM and 79 nM. The like results for `CCN1CCN(Cc2ccc(NC(=O)Nc3nc(C)c(-c4nc(NC)ncc4Cl)s3)cc2C(F)(F)F)CC1` [Compound 66, 1-(5-(5-Chloro-2-(methylamino)pyrimidin-4-yl)-4-methylthiazol-2-yl)-3-(4-((4-ethylpiperazin-1-yl)methyl)-3-(trifluoromethyl)phenyl)urea] were, in that order, 73 ± 30 nM and 21 nM.

For `CNc1nccc(-c2sc(NC(=O)Nc3ccc(F)cc3C)nc2C)n1` [Compound 6, 1-(4-Fluoro-2-methylphenyl)-3-(4-methyl-5-(2-(methylamino)-pyrimidin-4-yl)thiazol-2-yl)urea], the half-maximal inhibitory concentration (IC50) in assay [2] came out at 233 nM. In turn, `Cc1nc(NC(=O)Nc2ccc(CN3CCOCC3)c(C(F)(F)F)c2)sc1-c1ccnc(N)n1` [Compound 64, 1-(5-(2-Aminopyrimidin-4-yl)-4-methylthiazol-2-yl)-3-(4-(morpholinomethyl)-3-(trifluoromethyl)phenyl)urea] displayed a GI50 in assay [1] of 275 ± 50 nM. For the same compound, in assay [2], the IC50 turned out to be 15 nM. Compound `CC(=O)N1CCN(Cc2ccc(NC(=O)Nc3nc(C)c(-c4ccnc(C(C)C)n4)s3)cc2C(F)(F)F)CC1` [Compound 77, 1-(4-((4-Acetylpiperazin-1-yl)methyl)-3-(trifluoromethyl)phenyl)-3-(5-(2-isopropylpyrimidin-4-yl)-4-methylthiazol-2-yl)urea] returned a GI50 in assay [1] of 712 ± 20 nM. For the same compound, the IC50 in assay [2] was 169 nM. `Cc1nc(NC(=O)Nc2ccc(CN3CCN(S(C)(=O)=O)CC3)c(C(F)(F)F)c2)sc1-c1ccnc(C(C)C)n1` [Compound 78, 1-(5-(2-Isopropylpyrimidin-4-yl)-4-methylthiazol-2-yl)-3-(4-((4-(methylsulfonyl)-piperazin-1-yl)methyl)-3-(trifluoromethyl)phenyl)urea] came in with a 50% growth inhibitory concentration (GI50) in assay [1] of 1590 ± 90 nM. Besides, the IC50 in assay [2] was 293 nM. The like results for `CCNc1nccc(-c2sc(NC(=O)Nc3ccc(CN4CCN(CC)CC4)c(C(F)(F)F)c3)nc2C)n1` [Compound 53, 1-(5-(2-(Ethylamino)pyrimidin-4-yl)-4-methylthiazol-2-yl)-3-(4-((4-ethylpiperazin-1-yl)methyl)-3-(trifluoromethyl)phenyl)urea] were, in that order, less than 1 nM and 90 nM. `Cc1nc(NC(=O)Nc2ccc(CN3CCOCC3)c(C(F)(F)F)c2)sc1-c1ccnc(C(C)C)n1` [Compound 79, 1-(5-(2-Isopropylpyrimidin-4-yl)-4-methylthiazol-2-yl)-3-(4-(morpholinomethyl)-3-(trifluoromethyl)phenyl)urea] had a GI50 in assay [1] of 998 ± 60 nM. For the same compound, the IC50 in assay [2] was 206 nM. For the compound `CNc1nccc(-c2sc(NC(=O)Nc3ccc(C(F)(F)F)cc3C(F)(F)F)nc2C)n1` [Compound 8, 1-(2,4-Bis(trifluoromethyl)phenyl)-3-(4-methyl-5-(2-(methylamino)-pyrimidin-4-yl)thiazol-2-yl)urea], the IC50 in assay [2] turned out to be 65 nM.

For the compound `CNc1nccc(-c2sc(NC(=O)Nc3ccccc3C(F)(F)F)nc2C)n1` [Compound 2, 1-(4-Methyl-5-(2-(methylamino)-pyrimidin-4-yl)thiazol-2-yl)-3-(2-(trifluoromethyl)phenyl)urea], the IC50 in assay [2] amounted to 1360 nM. In assay [1], `CNc1nccc(-c2sc(NC(=O)Nc3ccc(CN4CCCCC4)c(C(F)(F)F)c3)nc2C)n1` [Compound 38, 1-(4-Methyl-5-(2-(methylamino)-pyrimidin-4-yl)thiazol-2-yl)-3-(4-(piperidin-1-ylmethyl)-3-(trifluoromethyl)phenyl)urea] had a GI50 of 994 ± 130 nM. `CNc1nccc(-c2sc(NC(=O)Nc3ccc(C(F)(F)F)cc3)nc2C)n1` [Compound 41, 1-(4-Methyl-5-(2-(methylamino)pyrimidin-4-yl)thiazol-2-yl)-3-(4-(trifluoromethyl)phenyl)urea]: in assay [2], the IC50 stood at 19 nM.

For the origin of these results see US11325900B2, “5-(pyrimidin-4-yl)thiazol-2-yl urea derivatives as therapeutic agents” (AUCENTRA HOLDINGS PTY LTD, priority 2018, dated 2022).
